Measured values: ChEMBL document CHEMBL1139533, “Structure-activity relationship studies of a series of antiviral and antibacterial aglycon derivatives of the glycopeptide antibiotics vancomycin, eremomycin, and dechloroeremomycin” (J Med Chem, 2005)
pEC50, pIC50: −log10 of the molar value. ≈ marks a conversion by molar mass, not a printed value.

Columns and labels:
[1] = system: CCRF-CEM; experiment: Cytostatic activity to the compound against CEM cell line; format: functional, cell-based; conditions: Homo sapiens
[2] = system: Enterococcus faecalis; experiment: Minimum inhibitory concentration against glycopeptide resistant enterococci 560 Enterococcus faecalis; format: functional
[3] = system: L1210; experiment: Cytostatic activity against L1210 cell line; format: functional, cell-based; conditions: Mus musculus
[4] = system: Moloney murine sarcoma virus; experiment: Effective concentration against Moloney sarcoma virus; format: functional, organism-based, Viruses
[5] = system: Enterococcus faecium; experiment: Minimum inhibitory concentration against glycopeptide resistant enterococci 569 Enterococcus faecium; format: functional
[6] = system: MOLT-4; experiment: Cytostatic activity to the compound against Molt4/C8 cell line; format: functional, cell-based; conditions: Homo sapiens
[7] = system: Human immunodeficiency virus 2; experiment: Effective concentration against human immunodeficiency virus type 2; format: functional, organism-based
[8] = system: Staphylococcus aureus; experiment: Minimum inhibitory concentration against glycopeptide intermediate-resistant 3798 Staphylococcus aureus; format: functional
[9] = system: Enterococcus faecium; experiment: Minimum inhibitory concentration against glycopeptide susceptible enterococci 568 Enterococcus faecium; format: functional
[10] = system: Human immunodeficiency virus 1; experiment: Effective concentration against human immunodeficiency virus type 1; format: functional, organism-based
[11] = system: Staphylococcus epidermidis; experiment: Minimum inhibitory concentration against 533 Staphylococcus epidermidis; format: functional
[12] = system: Staphylococcus haemolyticus; experiment: Minimum inhibitory concentration against 602 Staphylococcus haemolyticus; format: functional
[13] = system: Staphylococcus aureus; experiment: Minimum inhibitory concentration against glycopeptide intermediate-resistant 3797 Staphylococcus aureus; format: functional
[14] = system: Enterococcus faecalis; experiment: Minimum inhibitory concentration against 559 glycopeptide susceptible enterococci Enterococcus faecalis; format: functional
[15] = system: C3H/3T3; experiment: Minimal cytotoxic concentration to cause an alteration in C3H/3T3 cell line morphology; format: functional; conditions: Mus musculus

Structure (SMILES)	pIC50 [1]	MIC [2] [µg/mL]	pIC50 [3]	pEC50 [4]	MIC [5] [µg/mL]	pIC50 [6]	pEC50 [7]	MIC [8] [µg/mL]	MIC [9] [µg/mL]	pEC50 [10]	MIC [11] [µg/mL]	MIC [12] [µg/mL]	MIC [13] [µg/mL]	MIC [14] [µg/mL]	MCC [15] [µg/mL]
NC(=O)C[C@@H]1NC(=O)[C@H](N)[C@H](O)c2ccc(c(Cl)c2)Oc2cc3cc(c2O)Oc2ccc(cc2)[C@@H](O)[C@@H]2NC(=O)[C@H](NC(=O)[C@@H]3NC1=O)c1ccc(O)c(c1)-c1c(O)cc(O)cc1[C@@H](C(=O)O)NC2=O	< 3.60	> 128	< 3.60	< 4.00	> 128	< 3.60	< 3.60	> 128	> 128	3.94	> 128	> 128	> 128	> 128	≥ 100
NCCCCCCCCCCNC(=O)[C@H]1NC(=O)[C@H]2NC(=O)[C@H](NC(=O)[C@@H]3NC(=O)[C@H](CC(N)=O)NC(=O)[C@H](N)[C@H](O)c4ccc(c(Cl)c4)Oc4cc3cc(c4O)Oc3ccc(cc3Cl)[C@H]2O)c2ccc(O)c(c2)-c2c(O)cc(O)cc21	3.86	> 64	< 3.60	5.03	> 64	≤ 3.60	≤ 4.60	> 32	> 64	≤ 4.60	> 32	> 32	> 32	> 64	100
CN[C@H](CC(C)C)C(=O)N[C@H]1C(=O)N[C@@H](CC(N)=O)C(=O)N[C@H]2C(=O)N[C@H]3C(=O)N[C@H](C(=O)N[C@H](C(=O)O)c4cc(O)cc(O)c4-c4cc3ccc4O)[C@H](O)c3ccc(cc3)Oc3cc2cc(c3O)Oc2ccc(cc2)[C@H]1O	< 3.60	> 64	< 3.60	≤ 4.00	> 64	< 3.60	< 3.90	> 32	32 (≈ 29.8 µM)	< 3.90	32 (≈ 29.8 µM)	> 32	> 32	32 (≈ 29.8 µM)	≥ 100
NC(=O)C[C@@H]1NC(=O)[C@H](N)[C@H](O)c2ccc(c(Cl)c2)Oc2cc3cc(c2O)Oc2ccc(cc2Cl)[C@@H](O)[C@@H]2NC(=O)[C@H](NC(=O)[C@@H]3NC1=O)c1ccc(O)c(c1)-c1c(O)cc(O)cc1[C@@H](C(=O)O)NC2=O	≤ 3.60	> 128	< 3.60	4.06	> 128	< 3.60	≤ 3.90	> 128	> 128	≤ 3.90	> 128	> 128	> 128	> 128	> 100
NC(=O)C[C@@H]1NC(=O)[C@H](N)[C@H](O)c2ccc(c(Cl)c2)Oc2cc3cc(c2O)Oc2ccc(cc2Cl)[C@@H](O)[C@@H]2NC(=O)[C@H](NC(=O)[C@@H]3NC1=O)c1ccc(O)c(c1)-c1c(O)cc(O)cc1[C@@H](C(=O)NCC13CC4CC(CC(C4)C1)C3)NC2=O	≤ 3.60	> 64	≤ 3.60	4.57	> 64	3.75	4.52	> 32	> 64	4.70	> 32	> 32	> 32	> 64	≥ 100
CN[C@H](CC(C)C)C(=O)N[C@H]1C(=O)N[C@@H](CC(N)=O)C(=O)N[C@H]2C(=O)N[C@H]3C(=O)N[C@H](C(=O)N[C@H](C(=O)NCC45CC6CC(CC(C6)C4)C5)c4cc(O)cc(O)c4-c4cc3ccc4O)[C@H](O)c3ccc(cc3)Oc3cc2cc(c3O)Oc2ccc(cc2)[C@H]1O	3.78	16 (≈ 13.1 µM)	4.24	4.96	16 (≈ 13.1 µM)	4.36	4.92	16 (≈ 13.1 µM)	4 (≈ 3.27 µM)	5.07	8 (≈ 6.54 µM)	16 (≈ 13.1 µM)	8 (≈ 6.54 µM)	8 (≈ 6.54 µM)	100
NC(=O)C[C@@H]1NC(=O)[C@H](N)[C@H](O)c2ccc(c(Cl)c2)Oc2cc3cc(c2O)Oc2ccc(cc2)[C@@H](O)[C@@H]2NC(=O)[C@H](NC(=O)[C@@H]3NC1=O)c1ccc(O)c(c1)-c1c(O)cc(O)cc1[C@@H](C(=O)NC1C3CC4CC(C3)CC1C4)NC2=O (stereo not given in full)	< 3.60	> 64	< 3.60	4.66	> 64	< 3.60	4.30	> 32	> 64	4.30	> 32	> 32	> 32	> 64	≥ 100
CN[C@H](CC(C)C)C(=O)N[C@H]1C(=O)N[C@@H](CC(N)=O)C(=O)N[C@H]2C(=O)N[C@H]3C(=O)N[C@H](C(=O)N[C@H](C(=O)NC4C5CC6CC(C5)CC4C6)c4cc(O)cc(O)c4-c4cc3ccc4O)[C@H](O)c3ccc(cc3)Oc3cc2cc(c3O)Oc2ccc(cc2)[C@H]1O (stereo not given in full)	3.73	32 (≈ 26.5 µM)	3.89	4.85	32 (≈ 26.5 µM)	3.73	4.66	16 (≈ 13.2 µM)	8 (≈ 6.62 µM)	5.07	16 (≈ 13.2 µM)	16 (≈ 13.2 µM)	16 (≈ 13.2 µM)	16 (≈ 13.2 µM)	100
CN[C@H](CC(C)C)C(=O)N[C@H]1C(=O)N[C@@H](CC(N)=O)C(=O)N[C@H]2C(=O)N[C@H]3C(=O)N[C@H](C(=O)N[C@H](C(=O)NCCCCCCCCCCN)c4cc(O)cc(O)c4-c4cc3ccc4O)[C@H](O)c3ccc(cc3)Oc3cc2cc(c3O)Oc2ccc(cc2)[C@H]1O	3.96	32 (≈ 26 µM)	3.84	4.85	64 (≈ 52.1 µM)	3.97	< 4.60	16 (≈ 13 µM)	8 (≈ 6.51 µM)	4.82	16 (≈ 13 µM)	16 (≈ 13 µM)	16 (≈ 13 µM)	16 (≈ 13 µM)	100
